PubChem BioAssay (NCI)
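Method: 48-hour compound exposure of cells in 96-well plates, five concentrations, linear interpolation of endpoints. Here, GI50 denotes the concentration required for 50% inhibition of growth. TGI is the concentration that stops growth completely.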

Legend:
Assay in all cases: NCI anticancer screen, dose series, 48 h
[1] = system: DU-145 prostate
[2] = system: IGROV1 ovarian
[3] = system: SW-620 colon
[4] = system: RXF 393 renal
[5] = system: PC-3 prostate
[6] = system: SF-268 CNS
[7] = system: NCI-H23 lung
[8] = system: HCT-116 colon
[9] = system: CCRF-CEM leukemia
[10] = system: SK-OV-3 ovarian

Structure (SMILES) | GI50 [1] [µM] | TGI [1] [µM] | GI50 [2] [µM] | TGI [2] [µM] | GI50 [3] [µM] | TGI [3] [µM] | GI50 [4] [µM] | TGI [4] [µM] | GI50 [5] [µM] | TGI [5] [µM] | GI50 [6] [µM] | TGI [6] [µM] | GI50 [7] [µM] | TGI [7] [µM] | GI50 [8] [µM] | TGI [8] [µM] | TGI [9] [µM] | TGI [10] [µM] | GI50 [10] [µM] | GI50 [9] [µM]
COc1ncnc(NS(=O)(=O)c2ccc(N=C3C(=O)N(CN4CCN(c5c(F)cc6c(=O)c(C(=O)O)cn(C7CC7)c6c5OC)CC4C)c4ccc(Br)cc43)cc2)c1OC (configuration not stated) | 10.9 | 37.3 | 17.3 | > 50 | 9.41 | > 50 | 12.9 | 33 | 6.76 | 29.4 | 5.58 | > 50 | 8.79 | 27 | 9.96 | > 50 | – | – | – | –
N#CC(c1ccccn1)c1nc2ccccc2[nH]1 (configuration not stated) | – | – | – | – | – | > 100 | – | – | – | – | – | > 100 | – | > 100 | – | > 100 | > 100 | > 100 | – | –
O=C(O)/C=C/c1nc2ccccc2c(=O)o1 | – | – | – | > 100 | – | > 100 | – | – | – | – | – | – | – | > 100 | – | > 100 | > 100 | > 100 | – | –
Cc1cc(C)nc(NS(=O)(=O)c2ccc(Nc3c4ccccc4nc4c(C(=O)Nc5ccc(S(=O)(=O)N=C(N)N)cc5)cccc34)cc2)n1 | – | – | – | > 100 | – | > 100 | – | 85.1 | – | – | – | > 100 | – | > 100 | – | – | > 100 | > 100 | – | –
O=S(=O)(/C=C/C(=C/c1ccccc1)S(=O)(=O)c1ccccc1)c1ccccc1 | – | – | – | 25 | – | – | – | 3.19 | – | – | – | 4.1 | – | 3.56 | – | 3.13 | 3.05 | 2.79 | – | –
O=C(CCC1C(=O)NC(=S)NC1=O)c1ccc2ccccc2c1 | – | – | – | > 100 | – | > 100 | – | > 100 | – | – | – | > 100 | – | > 100 | – | > 100 | > 100 | > 100 | – | –
CC1(c2ccccc2Cl)C(C#N)C(=O)NC(=O)C1C#N (configuration not stated) | – | – | – | > 100 | – | > 100 | – | > 100 | – | – | – | > 100 | – | > 100 | – | – | > 100 | > 100 | – | –
CC(C)=CC(=O)N(C)C1C2CN3CCC(O2)C13 (configuration not stated) | – | – | – | > 100 | – | > 100 | – | > 100 | – | – | – | > 100 | – | > 100 | – | > 100 | > 100 | > 100 | – | –
CCN(CC)c1ccc2c(c1)Oc1ccc(N(CC)CC)cc1C21Oc2ccccc2-c2c1c1ccccc1n2CC (configuration not stated) | – | – | – | – | – | > 100 | – | > 100 | – | – | – | > 100 | – | 8.01 | – | > 100 | > 100 | > 100 | – | –
C(=N/N(Cc1ccccc1)Cc1ccccc1)/c1ccccc1 | > 100 | > 100 | > 100 | > 100 | > 100 | > 100 | 66.3 | > 100 | > 100 | > 100 | > 100 | > 100 | 90.8 | > 100 | 26.1 | > 100 | – | > 100 | > 100 | –
Cc1nc(C(=O)O)c2ccccc2n1 | – | – | – | > 100 | – | > 100 | – | > 100 | – | – | – | > 100 | – | > 100 | – | > 100 | > 100 | > 100 | – | –
C[N+](C)(C)CC1CCCC1=O (configuration not stated) | – | 0.0951 | – | 32.3 | – | 1.07 | – | 5.3 | – | 2.91 | – | 20.8 | – | 9.67 | – | 3.74 | – | 30.4 | – | –
COC1C(N)C(OC2C(Oc3cccc4c(O)c5c(=O)oc6ccc(C)c7c(=O)oc(c34)c5c67)OC(C)C(O)C2(C)O)OC(C)C1O (configuration not stated) | – | 1.33 | – | 0.132 | – | 1.61 | – | 0.138 | – | 1.18 | – | 0.104 | – | 0.249 | – | 0.118 | 3.66 | – | – | –
C/C(=C\c1cnc(C)s1)[C@@H]1C[C@@H]2O[C@@H]2CCC[C@H](C)[C@H](O)[C@@H](C)C(=O)C(C)(C)[C@@H](O)CC(=O)O1 | < 0.01 | > 100 | 0.0103 | > 100 | < 0.01 | > 100 | < 0.01 | > 100 | < 0.01 | > 100 | – | – | < 0.01 | > 100 | < 0.01 | > 100 | > 100 | > 100 | < 0.0125 | < 0.01
COC1C(O)C(CO)OC(OC2C(O)COC(OC3C(C)OC(OC4C(O[C@H]5CC[C@@]6(C)C(CC=C7[C@H]6CCC68C(=O)O[C@@](C)(CCCC(C)C)[C@H]6[C@@H](OC(C)=O)C[C@@]78C)C5(C)C)OCC(OS(=O)(=O)O)C4O)C(OC4OCC(O)C(O)C4O)C3O)C2O)C1O (some centres not stated) | 0.209 | 0.656 | 0.178 | 0.499 | 0.0952 | 0.272 | 0.184 | 0.66 | 0.159 | 1.87 | 0.199 | 0.685 | 0.113 | 0.287 | 0.0886 | 0.229 | 0.775 | – | – | 0.225
C=CNC(=O)NC(=O)CSc1nnc(-c2ccccc2NC(=O)C(F)(F)F)c(=O)[nH]1 | – | – | – | > 100 | – | > 100 | – | > 100 | – | – | – | > 100 | – | > 100 | – | > 100 | > 100 | > 100 | – | –
CC12CCC(=O)N1c1ccc([N+](=O)[O-])cc1N2 (configuration not stated) | – | – | – | > 100 | – | > 100 | – | > 100 | – | – | – | > 100 | – | > 100 | – | > 100 | > 100 | > 100 | – | –
O=C(c1nc2ccccc2[nH]c1=O)C(O)c1ccccc1 (configuration not stated) | – | – | – | > 100 | – | > 100 | – | – | – | – | – | > 100 | – | > 100 | – | > 100 | > 100 | > 100 | – | –
COc1cc2c(cc1OC)-c1ncc3c(OC)c(OC)c(OC)cc3c1C2 | – | – | – | – | 34.2 | > 100 | – | – | > 100 | > 100 | 4.97 | 16.5 | – | – | 8.81 | 64.7 | – | 43.2 | 18.9 | –
CC(=O)OCCOCNC(=S)N/N=C/c1cc(Br)cs1 | – | – | – | > 100 | – | > 100 | – | > 100 | – | – | – | > 100 | – | > 100 | – | > 100 | > 100 | > 100 | – | –
OC(C#Cc1ccccc1)(c1ccccc1)c1ccccc1 | – | > 100 | – | > 100 | – | > 100 | – | – | – | > 100 | – | 54.9 | – | > 100 | – | > 100 | 35.3 | > 100 | – | –
